This passage reports SPF value results from patent publication US20050106114A1, “Process for improving the sun protection factor of cellulosic fibre material” (priority 2002, published 2005).

The nature of assay [1]: Sun Protection Factor of treated fabric, AS/NZS 4399:1996, Melbourne sunlight. The settings on record: Cotton-cretone; bleached, then fresh bath with 0.01% UV absorber (102) followed by 0.2% compound (101), relative to fabric weight; average of 4 measurements. An excerpt: (§1) The sun protection factor is defined as the ratio of the harmful dose of UV energy on protected skin to the harmful dose of UV energy on unprotected skin. Accordingly, a sun protection factor is also a measure of the transmissivity of fibre materials untreated and of those treated with FWA's and reactive UV absorbers described in this invention.
(§2) The sun protection factor can be determined, for example, by the method described by B. L. Diffey and J.Robson in J.Soc.Cosmet.Chem., 40, 127-133 (1989).
(§3) Two samples each of 10 g. of a pre-washed cellulose fabric (cotton cretonne) are treated in an AHIBA® dyeing machine for 60 minutes at 95° C. at a liquor ratio of 1:20 in two different aqueous liquors.
(§4) A) 3.0 ml/l hydrogen peroxide 35% • 2.0 ml/l sodium silicate 38° Bé • 2.0 ml/l caustic soda 36° Bé • 0.5 g/l ULTRAVON EL
(§5) B) The same liquor as in A), but containing additionally • 0.012% compound of formula (101) according to Example 1.
Two samples each of 10 g. of a pre-washed cellulose fabric (cotton cretonne or cotton poplin, respectively) are treated in an AHIBA® dyeing machine for 60 minutes at 95° C. at a liquor ratio of 1:20 in an aqueous liquor containing:
The samples are then treated for 10 minutes at 40° C. at a liquor ratio of 1:20 in a fresh bath containing 0.01% (relative to the weight of the fabric) of the compound of the formula [drawing 25] […]

Test in assay [2]: as above
The settings on record: Cotton-Poplin; bleached, then fresh bath with 0.01% UV absorber (102) followed by 0.2% compound (101), relative to fabric weight; average of 4 measurements.
Description: as §1, §2, §3, §4, §5
If the procedure of Example 9 is repeated, but with samples of different cellulose fabric (cotton poplin) the results of the following table are obtained.
Two samples each of 10 g. of a pre-washed cellulose fabric (cotton cretonne or cotton poplin, respectively) are treated in an AHIBA® dyeing machine for 60 minutes at 95° C. at a liquor ratio of 1:20 in an aqueous liquor containing: […]

Consider `CCOc1ccc(NC(=O)C(=O)Nc2ccc(Nc3nc(Cl)nc(Nc4ccc(S(=O)(=O)CCOS(=O)(=O)[O-])cc4)n3)cc2)cc1S(=O)(=O)[O-].[Na+].[Na+]` [compound (102)], for which the SPF value entry in assay [1] and in assay [2] was “additional improvement” in each case.
